Biological target: T1, KuFL (full-length human Ku70–Ku80 heterodimer) (Homo sapiens, UniProt P12956+P13010)
T1 construct: The full-length human Ku heterodimer subunits (Ku70 1–609, Ku80 1–732); 10x His-tag with TEV site (N); made in house; host or cells: Sf21 insect cells (baculovirus, MultiBac)
Experiment: Isothermal titration calorimetry (ITC), KuFL with IP6 and IP6 analogues
Type: binding
Conditions: 25 °C, Ku 4 µM in cell, IPs 40 µM in syringe
Description: Purification of Ku full-length (KuFL) for cryo-EM experiments was carried out as described previously ([5]). Expression and purification of KuFL for biophysical experiments was carried out as described previously ([20]). The full-length human Ku heterodimer subunits (Ku70 1–609, Ku80 1–732) were cloned into a Multibac vector ([21]). The construct has a 10× His-tag and a TEV site on the N-terminus of Ku80 and no-tag on Ku70. Protein production was initiated in Sf21 cells by infection with the baculovirus stock at MOI of 5 × 10^−3 and cells were collected 5–6 days after the infection (3–4 days after the proliferation arrest). Cells were sonicated and the supernatant was incubated with Benzonase (300 units for 30 min at 4°C). The Ku heterodimer was purified on a NiNTA-Agarose affinity column (Protino, Macherey Nagel) with a 1 M NaCl wash step to remove DNA excess. The eluted Ku was then bound onto an anion exchange column (Resource Q, Cytiva) equilibrated in 20 mM Tris pH 8.0, 50 mM NaCl, 50 mM KCl, 10 mM β-mercaptoethanol and eluted with a salt gradient. The final yield was about 20 mg of purified heterodimer per litre of culture. KuΔC constructs, heterodimer deleted of its C-terminal region (Ku70 1–544, Ku80 1–551) for X-ray crystallography, Ku mutants, Ku-2E (Ku with mutation in K357E on Ku70 and K481E on Ku80) and Ku-4E (Ku with mutations in H359E and H360E on Ku70 and K413E and H414E on Ku80) were cloned in the same vector and produced following the same protocol as KuFL expressed in Sf21 insect cells.
Calorimetry. Interactions between KuFL and inositol phosphates (IPs) (IP6 and IP6 analogues) were determined by Isothermal Titration Calorimetry (ITC) using a VP-ITC calorimeter (Malvern). Prior to measurements, all solutions were degassed under vacuum. The reaction cell of the ITC (volume 1.8 mL) was loaded with Ku heterodimers at 4 µM concentration. […] The free energy of binding (ΔG) and the entropy (ΔS) were determined using the classical thermodynamic formula, ΔG = - RT ln(Ka) and ΔG = ΔH - TΔS. […]

T1 sequence (P12956 whole entry): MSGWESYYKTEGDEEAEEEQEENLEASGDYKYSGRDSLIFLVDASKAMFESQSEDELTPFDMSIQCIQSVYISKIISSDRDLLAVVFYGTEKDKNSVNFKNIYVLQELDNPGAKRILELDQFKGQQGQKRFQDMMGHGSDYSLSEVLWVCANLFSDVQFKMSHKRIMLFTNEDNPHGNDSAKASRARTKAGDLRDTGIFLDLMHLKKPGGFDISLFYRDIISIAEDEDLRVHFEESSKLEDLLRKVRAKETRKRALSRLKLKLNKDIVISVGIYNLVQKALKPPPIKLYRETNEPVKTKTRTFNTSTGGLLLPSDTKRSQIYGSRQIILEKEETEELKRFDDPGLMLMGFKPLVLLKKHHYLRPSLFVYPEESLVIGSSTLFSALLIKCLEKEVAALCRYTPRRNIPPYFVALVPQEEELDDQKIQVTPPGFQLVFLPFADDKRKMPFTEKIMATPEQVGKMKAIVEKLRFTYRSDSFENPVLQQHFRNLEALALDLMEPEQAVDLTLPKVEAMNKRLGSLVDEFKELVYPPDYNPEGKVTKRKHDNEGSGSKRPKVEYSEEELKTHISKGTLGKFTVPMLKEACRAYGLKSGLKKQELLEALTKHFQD
T1 sequence (P13010 whole entry): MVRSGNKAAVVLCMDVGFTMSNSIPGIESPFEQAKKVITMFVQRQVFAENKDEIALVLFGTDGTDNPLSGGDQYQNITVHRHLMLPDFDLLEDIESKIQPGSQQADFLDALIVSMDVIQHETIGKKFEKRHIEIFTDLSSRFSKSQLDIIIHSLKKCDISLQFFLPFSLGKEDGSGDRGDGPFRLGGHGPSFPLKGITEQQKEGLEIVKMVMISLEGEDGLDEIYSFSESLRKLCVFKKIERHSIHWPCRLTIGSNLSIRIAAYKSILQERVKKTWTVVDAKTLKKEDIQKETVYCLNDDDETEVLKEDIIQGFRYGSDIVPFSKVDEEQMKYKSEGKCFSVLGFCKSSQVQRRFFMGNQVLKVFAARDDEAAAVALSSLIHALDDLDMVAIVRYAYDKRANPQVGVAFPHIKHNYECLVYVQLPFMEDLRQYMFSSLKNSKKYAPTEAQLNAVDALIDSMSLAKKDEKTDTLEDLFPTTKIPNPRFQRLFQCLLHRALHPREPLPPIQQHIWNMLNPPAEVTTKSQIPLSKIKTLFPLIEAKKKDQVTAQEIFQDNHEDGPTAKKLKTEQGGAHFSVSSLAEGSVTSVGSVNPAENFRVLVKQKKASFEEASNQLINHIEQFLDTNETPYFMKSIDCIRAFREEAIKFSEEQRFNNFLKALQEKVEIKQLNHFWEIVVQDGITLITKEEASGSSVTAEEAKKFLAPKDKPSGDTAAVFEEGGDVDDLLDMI

In the case of `O=P(O)(O)O[C@H]1[C@H](OP(=O)(O)O)[C@@H](OP(=O)(O)O)[C@H](OP(=O)(O)O)[C@@H](OP(=O)(O)O)[C@H]1OP(=O)(O)O` [IP6, inositol hexaphosphate], the Kd is reported as 3.5 ± 2.9 nM.
